Series [1] relates to MRSA (USA300 isolate). The experiment in a line: Hemolysis Assay I (exotoxin-mediated lysis of rabbit red blood cells by culture supernatant). Format: cell-based, Staphylococcus aureus. Conditions: 30/10/3.3/1.1/0.37 μM compound, values at OD600 of 0.75.
For series [2], the system named is psmα. Format: cell-based, Staphylococcus aureus.
The subject of series [3] is RNAIII. The format is cell-based, Staphylococcus aureus. Conditions: 10 μM compound, two hours, MRSA (USA300 isolate), normalized to rpoD.
Series [4] relates to Staphylococcus aureus MRSA strain (USA300 isolate). Nature of the series: Hemolysis Assay II (exotoxin-mediated lysis of rabbit red blood cells by culture filtrate). Conditions: Erythrocyte; for minimal effective concentration / IC95: 18 h; for minimal effective concentration: absorbance <2× the average of the complete inhibition control, read-out: Hemolysis assay II MEC (minimal effective concentration); for IC95: read-out: Hemolysis assay II IC95; for IC50: 18 h culture in CA-MHB, rabbit red blood cells. Format: cell-based.

Series [5] relates to MRSA. Nature of the series: MIC by broth microdilution in CA-MHB (CLSI). The note with it: Staphylococcus aureus, 18 h, read-out: MIC on MRSA. For orientation: Dilution methods test growth across graded concentrations, often in twofold steps.
Protocol: Minimal inhibitory concentrations (MIC) were determined by broth microdilution method in cation-adjusted Mueller-Hinton (CA-MHB) broth according to the CLSI guideline. From an overnight culture plate, cells were resuspended in 0.9% (w/v) saline solution and bacterial inoculum was prepared in CA-MHB with 5×10^5 CFU/ml. Compounds were two-fold serially diluted in CA-MHB and 10 μL of this 10× concentrated samples were added into the 96-well plate. 90 μL of bacterial suspension was finally added to the compounds. Plates were covered and incubated without shaking at 35° C. for 18 hours. Every experiment contained an antibiotic as quality control. MIC was determined visually as the lowest concentration of a compound that prevents visible growth of the bacteria and the plates were scanned for documentation.
Series [6] relates to HepG2. Conditions: human, 48 h.
For series [7], the target named is AgrAc (C-terminal domain of AgrA) (Staphylococcus aureus, UniProt P0A0I7). The format is binding. Conditions: 15N-AgrAc 100 μM, 1.6 mM compound. From the text:
2D ^1H,^15N HSQC spectra were acquired at 298 K on a Bruker Avance IIIHD 600 MHz NMR spectrometer, equipped with a cryogenic triple resonance probe (Bruker, Karlsruhe, Germany). The proton chemical shifts were referenced using the methyl signal of sodium 3-trimethylsillyl-[2,2,3,3-d4]-propionate at 0 ppm. Spectra were processed with the Bruker TopSpin software package 3.5 and analyzed with the Sparky software. Assignments of AgrAc were deduced from the Biological Magnetic Resonance Bank (BMRB) entry 18598. Chemical shifts are reported in parts per million (δ) downfield from the internal standard tetramethylsilane (TMS). […]
For each sample tested, 400 μL of 15N-AgrAc @ […] in [50 mM NaPi pH6.3; 100 mM NaCl 3 mM THP; 5% D20; + TMSP] were mixed with 13 μL of the stock solution of the compound (dissolved in DMSO-d6). […] The samples were analysed on the 600 MHz spectrometer with the sample changer. […]
To produce ^15N-labeled C-terminal domain of AgrA (AgrAc), Escherichia coli BL21(DE3) cells were grown in a M9-based semi-rich medium: M9 medium supplemented with [^15N]—NH4Cl (1.5 g/liter), unlabeled D-glucose (4 g/liter), Isogro-^15N Powder-Growth medium (1 g/liter, 10%; Sigma-Aldrich). […] Elution of AgrAc was performed with a sharp gradient of imidazole (0-400 mM) and the fractions were analyzed by SDS-PAGE (4-20%). […] Protein concentration was estimated based on its UV absorbance at 280 nm.

In series [8] the test system is S. aureus. The note with it: cited from earlier work.
For series [9], the system named is MRSA USA300 type strain. The note with it: mice infected with a MRSA USA300 type strain, applied multiple times; cited from earlier work.
In series [10] the test system is red blood cell (RBC). Conditions: cited from earlier work.
The test system of series [11] is S. aureus. The note with it: cited from earlier work. This is another data set of the same source.
Where [12] appears, read: Staphylococcus aureus, Erythrocyte.

Values after ≈ are worked out from the molar mass of the structure shown.

Results on eight compounds are retold here after US12509462B2, “3-(phenylsulfonyl)-[1,2,3]triazolo[1,5A]quinazolin-5(4H)-one derivatives” (BIOVERSYS AG, priority 2018, dated 2025).

Chain of AgrAc (C-terminal domain of AgrA) (P0A0I7 143-238): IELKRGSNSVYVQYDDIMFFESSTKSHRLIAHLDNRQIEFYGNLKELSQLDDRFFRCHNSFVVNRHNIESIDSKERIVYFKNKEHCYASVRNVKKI

`Cc1ccc(S(=O)(=O)c2nnn3c2[nH]c(=O)c2ccc(Cl)cc23)c(C)c1` [Compound 3, 8-chloro-3-(2,4-dimethylphenyl)sulfonyl-4H-triazolo[1,5-a]quinazolin-5-one]: the IC50 (usually the concentration that gives 50% inhibition) in series [1] (setting [12]) stood at 5 µM. The “Downregulation of psmα expression at 10 μM” value in series [2] is listed as “++ (++ downregulation>100-fold (2 log10))”. Moreover, in [3], the “Downregulation of RNAIII expression at 10 μM” value is given as “++ (++ downregulation>100-fold (2 log10))”. In addition, in [4], the minimal effective concentration is 4 µg/mL; the IC95 – broadly, the concentration at which the effect reaches the 95% level – worked out at 3.45 µg/mL (≈ 8.87 µM); the IC50 was determined as 1.65 µg/mL (≈ 4.24 µM). Besides, the MIC (in general, the least concentration at which growth counts as inhibited) in series [5] is at least 100 µM. Also, the “LD50 HepG2” value in series [6] was “>=100 μM”.

Take `COc1ccc2c(=O)[nH]c3c(S(=O)(=O)c4ccc(C)cc4C)nnn3c2c1` [Compound 5, 3-(2,4-dimethylphenyl)sulfonyl-8-methoxy-4H-triazolo[1,5-a]quinazolin-5-one]: in series [1] (setting [12]), half-maximal inhibition (IC50) required 6 µM. The “Downregulation of psmα expression at 10 μM” value in [2] is given as “++ (++ downregulation>100-fold (2 log10))”. Further, the “Downregulation of RNAIII expression at 10 μM” value in series [3] is “+ (+ downregulation>10-fold (1 log10))”. Also, in series [4], the minimal effective concentration was determined as 6 µg/mL, the IC95 came to 11.7 µg/mL (≈ 30.3 µM) and half-maximal inhibition (IC50) was put at 2.05 µg/mL (≈ 5.33 µM). Also, in series [5], the MIC was at least 100 µM. In series [6], the “LD50 HepG2” value is “>=100 μM”.

Compound `COc1ccc2c(=O)[nH]c3c(S(=O)(=O)c4ccc(C)cc4Cl)nnn3c2c1` [Compound 12, 3-(2-chloro-4-methyl-phenyl)sulfonyl-8-methoxy-4H-triazolo[1,5-a]quinazolin-5-one] showed an IC50 in [1] of 1.3 µM. The compound also came in with an IC50 in series [1] (setting [12]) of about 1 µM. Also, the “Downregulation of psmα expression at 10 μM” value in series [2] was “++ (++ downregulation>100-fold (2 log10))”. The “Downregulation of RNAIII expression at 10 μM” value in series [3] is “++ (++ downregulation>100-fold (2 log10))”. In series [4], the minimal effective concentration worked out at 3 µg/mL, the concentration for an effect of 95% (IC95) amounted to 2.75 µg/mL (≈ 6.79 µM) and the IC50 turned out to be 0.85 µg/mL (≈ 2.1 µM). For the same compound, in [5], the minimum inhibitory concentration (MIC) is at least 100 µM. Also, the “LD50 HepG2” value in [6] is reported as “>=100 μM”.

With `COc1ccc2c(=O)[nH]c3c(S(=O)(=O)c4ccc(C)cc4Br)nnn3c2c1` [Compound 18, 3-(2-bromo-4-methyl-phenyl)sulfonyl-8-methoxy-4H-triazolo[1,5-a]quinazolin-5-one], half-maximal inhibition in series [1] (IC50) required 0.8 µM. In series [1] (setting [12]), this compound showed an IC50 of about 1 µM. Besides, in [2], the “Downregulation of psmα expression at 10 μM” value is “++ (++ downregulation>100-fold (2 log10))”. Also, the “Downregulation of RNAIII expression at 10 μM” value in series [3] is listed as “++ (++ downregulation>100-fold (2 log10))”. In addition, in [4], the minimal effective concentration turned out to be 3 µg/mL; the 95% effect concentration (IC95) was 2.75 µg/mL (≈ 6.12 µM); the midpoint of inhibition, the IC50, lay at 0.95 µg/mL (≈ 2.11 µM). Moreover, the MIC in series [5] was at least 100 µM. The “LD50 HepG2” value in series [6] is reported as “>=100 μM”.

Take `COc1ccc2c(=O)[nH]c3c(S(=O)(=O)c4ccc(C)cc4C(F)(F)F)nnn3c2c1` [Compound 26, 8-methoxy-3-[4-methyl-2-(trifluoromethyl)phenyl]sulfonyl-4H-triazolo[1,5-a]quinazolin-5-one]: the half-maximal inhibitory concentration (IC50) in series [1] is 0.7 µM; in series [1] (setting [12]), about 1 µM; in series [4], 1 µg/mL (≈ 2.28 µM). Besides, the “Downregulation of psmα expression at 10 μM” value in [2] is on record as “++ (++ downregulation>100-fold (2 log10))”. Besides, the “Downregulation of RNAIII expression at 10 μM” value in series [3] was “++ (++ downregulation>100-fold (2 log10))”. For the same compound, the minimal effective concentration in series [4] turned out to be 6 µg/mL. In addition, in series [4], the 95% effect concentration (IC95) is 4.15 µg/mL (≈ 9.47 µM). For the same compound, the MIC in series [5] was at least 100 µM. The “LD50 HepG2” value in series [6] was “>=100 μM”.

As to `Cc1ccc(S(=O)(=O)c2nnn3c2[nH]c(=O)c2ccccc23)c(C)c1` [Compound 34, 3-(2,4-dimethylphenyl)sulfonyl-4H-triazolo[1,5-a]quinazolin-5-one], the IC50 in series [1] (setting [12]) turned out to be 5 µM. The “Downregulation of psmα expression at 10 μM” value in [2] is listed as “++ (++ downregulation>100-fold (2 log10))”. Also, the “Downregulation of RNAIII expression at 10 μM” value in series [3] is given as “++ (++ downregulation>100-fold (2 log10))”. The “Chemical shift perturbations upon binding to AgrAc” value in series [7] is “clearly show an interaction”. For the same compound, in [4], the minimal effective concentration came to 4 µg/mL, the concentration for an effect of 95% (IC95) was 3.2 µg/mL (≈ 9.03 µM) and the concentration for half-maximal inhibition (IC50) is 0.9 µg/mL (≈ 2.54 µM). In [5], the MIC was at least 100 µM. Also, in series [6], the “LD50 HepG2” value is given as “>=100 μM”.

`COc1cccc2c1c(=O)[nH]c1c(S(=O)(=O)c3ccc(C)cc3C)nnn12` [Compound 39, 3-(2,4-dimethylphenyl)sulfonyl-6-methoxy-4H-triazolo[1,5-a]quinazolin-5-one] registered an IC50 in [1] (setting [12]) of 0.8 µM. In series [4], the minimal effective concentration stood at 4 µg/mL, the 95% effect concentration (IC95) is 3.25 µg/mL (≈ 8.45 µM) and the 50% inhibitory concentration (IC50) was determined as 0.8 µg/mL (≈ 2.08 µM). The MIC in [5] is at least 100 µM. Moreover, in series [6], the “LD50 HepG2” value is reported as “>=100 μM”.

As to `CC(C)c1ccc(S(=O)(=O)c2nnn3c2nc(O)c2ccccc23)cc1` [Savirin, reference compound], in series [8], the “Viability of S. aureus” value is reported as “without affecting viability”. Also, in [9], the “Abscess size and dermo necrosis” value is recorded as “significant reduction”. For the same compound, the 50% inhibitory concentration (IC50) in series [1] (setting [12]) stood at 15 µM. Further, the “Downregulation of psmα expression at 10 μM” value in series [2] was “+ (key: 0=downregulation between 0 and 10-fold; + downregulation>10-fold (1 log10); ++ downregulation>100-fold (2 log10))”. Moreover, the “Downregulation of RNAIII expression at 10 μM” value in series [3] is 0 (0=downregulation between 0 and 10-fold). For the same compound, in [4], the minimal effective concentration was 8 µg/mL, the IC95 is 7.8 µg/mL (≈ 21.2 µM) and 2.6 µg/mL (≈ 7.06 µM) corresponded to half-maximal inhibition (IC50). Further, in series [10], the “Exotoxin-induced red blood cell (RBC) lysis” value is given as “inhibited”. The MIC in series [5] was at least 100 µM. Moreover, the “LD50 HepG2” value in series [6] is “>=100 μM”. For the same compound, in series [11], the “Resistance after multiple passages” value is “No resistance was developed”.
